The source made the active and inactive calls. The rule behind the calls is not given here.

What all share (conditions): Mutu-3, dose 50.0 nM, time 48.0 hrs
The target of experiment [1] is Bromodomain-containing protein 4 (Homo sapiens) (UniProt O60885).
Description: Inhibition of BRD4 in human Mutu-3 cells assessed as decrease in Cp-initiated EBNA 2 transcription at 50 nM incubated for 48 hrs by Q-PCR analysis relative to control
For experiment [2] the target is unchanged. This is another data set of the same source.
Description: Inhibition of BRD4 in human Mutu-3 cells assessed as decrease in Cp-initiated EBNA 1 transcription at 50 nM incubated for 48 hrs by Q-PCR analysis relative to control
The target is the same in experiment [3]. The source holds these as a separate data set.
Description: Inhibition of BRD4 in human Mutu-3 cells assessed as decrease in Cp-initiated LMP1 transcription at 50 nM incubated for 48 hrs by Q-PCR analysis relative to control
The target is the same in experiment [4]. The source holds these as a separate data set.
Description: Inhibition of BRD4 in human Mutu-3 cells assessed as decrease in Brd4 association in -40 cp region at 50 nM incubated for 48 hrs by CHIP analysis
Experiment [5] shares this target. This is another data set of the same source.
Description: Inhibition of BRD4 in human Mutu-3 cells assessed as decrease in Brd4 association in -208 cp region at 50 nM incubated for 48 hrs by CHIP analysis
Experiment [6] has the same target. This is another data set of the same source.
Description: Inhibition of BRD4 in human Mutu-3 cells assessed as decrease in Brd4 association in +48 cp region at 50 nM incubated for 48 hrs by CHIP analysis
For experiment [7] the target is unchanged. The source holds these as a separate data set.
Description: Inhibition of BRD4 in human Mutu-3 cells assessed as decrease in Brd4 association in +295 cp region at 50 nM incubated for 48 hrs by CHIP analysis
The target is the same in experiment [8]. This is another data set of the same source.
Description: Inhibition of BRD4 in human Mutu-3 cells assessed as decrease in CDK9 association in -40 cp region at 50 nM incubated for 48 hrs by CHIP analysis
The target is the same in experiment [9]. The source holds these as a separate data set.
Description: Inhibition of BRD4 in human Mutu-3 cells assessed as decrease in CDK9 association in -208 cp region at 50 nM incubated for 48 hrs by CHIP analysis
Experiment [10] has the same target. This is another data set of the same source.
Description: Inhibition of BRD4 in human Mutu-3 cells assessed as decrease in CDK9 association in +48 cp region at 50 nM incubated for 48 hrs by CHIP analysis
For experiment [11] the target is unchanged. The source holds these as a separate data set.
Description: Inhibition of BRD4 in human Mutu-3 cells assessed as decrease in CDK9 association in +295 cp region at 50 nM incubated for 48 hrs by CHIP analysis
Experiment [12] shares this target. The source holds these as a separate data set.
Description: Inhibition of BRD4 in human Mutu-3 cells assessed as decrease in Cyclin T1 association in -40 cp region at 50 nM incubated for 48 hrs by CHIP analysis
For experiment [13] the target is unchanged. The source holds these as a separate data set.
Description: Inhibition of BRD4 in human Mutu-3 cells assessed as decrease in Cyclin T1 association in -208 cp region at 50 nM incubated for 48 hrs by CHIP analysis
The target is the same in experiment [14]. The source holds these as a separate data set.
Description: Inhibition of BRD4 in human Mutu-3 cells assessed as decrease in Cyclin T1 association in +48 cp region at 50 nM incubated for 48 hrs by CHIP analysis
Experiment [15] has the same target. The source holds these as a separate data set.
Description: Inhibition of BRD4 in human Mutu-3 cells assessed as decrease in Cyclin T1 association in +295 cp region at 50 nM incubated for 48 hrs by CHIP analysis

In general, inhibition refers to the change of the read-out against control, counted positive when it falls. Turning to `Cc1sc2c(c1C)C(c1ccc(Cl)cc1)=N[C@@H](CC(=O)OC(C)(C)C)c1nnc(C)n1-2`, the inhibition in [1] was 74%; in [2], 65%. Moreover, the inhibition result in [3] was “inactive”. Also, the inhibition result in experiment [4], in [5], in experiment [6], in experiment [7], in experiment [8] and in [9] was “Active” throughout. The inhibition entry in experiment [10], in experiment [11], in [12], in [13], in experiment [14] and in experiment [15] was “Active” throughout.
